Source: publication PMC8746798, “Evaluation of 2-Thioxoimadazolidin-4-one Derivatives as Potent Anti-Cancer Agents through Apoptosis Induction and Antioxidant Activation: In Vitro and In Vivo Approaches” (Molecules, 2021)

What was measured:
[1] = tested on: HepG2 cells; test: Annexin V-FITC/PI apoptosis/necrosis flow cytometry; type: cell-based, human
Description: Apoptotic cells were quantified using double staining with annexin V and PI on flow cytometry. […] The detailed methodology of flow cytometric analysis (annexin V/PI differential apoptosis/necrosis, DNA content–flow cytometry aided cell cycle) is provided in the Supplementary Materials.
Supplementary materials for detailed methodology
Evaluation of 2-thioxoimadazolidin-4-one Derivatives as Potent
Anti-cancer Agents Through Apoptosis Induction and Antioxi-dant Activation: In vitro and In vivo Approaches
Mohamed S. Nafie 1,*, Ahmed I. Khodair 2,*, Hebat Allah Y. Hassan 3, Noha M. Abd El-Fadeal 4, Hanin A. Bogari 5 , Sameh S. Elhady 6 and Safwat A. Ahmed 3,7,* […]
Apoptosis and necrosis cell populations are determined using Annexin V-FITC apop-tosis detection kit (Abcam Inc., Cambridge Science Park, Cambridge, UK) coupled with 2 fluorescent channels flowcytometry. […]
Then, cells are incubated in dark with 0.5 ml of Annexin V-FITC/PI solution for 30 min in dark at room temperature according to manufacturer protocol. After staining, cells are injected via ACEA Novocyte™ flowcytometer (ACEA Biosciences Inc., San Diego, CA, USA) and analyzed for FITC and PI fluorescent signals using FL1 and FL2 signal detector, respectively (λex/em 488/530 nm for FITC and λex/em 535/617 nm for PI). […]

[2] = tested on: HepG2 cells; test: Colony forming assay; type: cell-based, human; conditions: HepG2, 100 μM
Procedure: HepG2 cells were allowed to attach to form a complete monolayer after seeding 200 cells per well (6-well plate) for 24 h. Five concentrations of compound 4 (0.01, 0.1, 1, 10, 100 µM) were added to the cultured cells, and cells were incubated for 48 h, followed by washing with PBS. After 7 days of incubation, the colonies were fixed and stained with 1% crystal violet in methanol for 3 h. Finally, the crystal violet stain was used for 20 min to stain and count the cells using the light microscope.

[3] = Hematological parameters (CBC) in mice; type: in vivo; conditions: 6 mg/Kg BW; for Hemoglobin: mean ± SE n = 9
Procedure: We randomly divided 50 mice into groups 5 groups (10 mice in each group): normal control (I) (mice injected intraperitoneally with the same volume of solvent for 14 consecutive days); group II, a group of normal mice treated with compound 4 (mice injected intraperitoneally with newly produced compound 4 at a dose of 6 mg/kg per day for 14 days); group III, solid tumor group (mice were implanted with solid tumor); group IV, group were treated with 5-FU (after 10 days of tumor implantation, mice were treated with 6 mg/kg only once); and group V, solid tumor group were treated with compound 4 (after 10 days of tumor implantation, mice were treated with 6 mg/kg only once). after one day of the previous treatment, 10 mice from each group were sacrificed and tumor weight, tumor volume (length and width of solid femoral tumor), blood and liver samples were obtained from each group. A portion of each blood sample taken was used for complete blood count (CBC) and the rest was centrifuged to obtain the serum. Serum was used for biochemical parameter estimation. The livers were rapidly dissected, washed with isotonic saline, and dried. The experiment design is summarized in Supplementary Figure S3.
Complete blood counts (CBCs) were counted using an AbbottCELLDYN®1800 Automated Hematology Analyzer (Abbott Park, IL, USA) equipped with an off-the-shelf kit (Abbott Laboratories, Abbott Park, IL, USA). For microscopic histopathological examination, tumor and kidney slices were maintained in 10% formalin, dehydrated with graduated alcohol, embedded in paraffin sections, H&E stained, and hematoxylin stained.

[4] = tested on: Caspase 3 and 9, Bcl-2, PI3K, AKT proteins in HepG2 cells; test: Western blot of apoptosis-related proteins; type: cell-based, human; conditions: treated HepG2 vs untreated control, normalized to β-actin
Procedure: Protein expression analysis for phosphorylated/total phosphatidylinositol 3-kinase (PI3K), protein kinase B (Akt), Caspase 3 and 9 proteins, and Bcl-2 was performed using the Western blotting technique to confirm the mechanism of apoptosis induction by compound 4 in HepG2 cells compared to control. Detailed methodology is supported in Supplementary Materials.

## O=C1NC(=S)N(c2ccc(O)cc2)/C1=C/c1cccs1 [Compound 4, (E)-1-(4-Hydroxyphenyl)-5-(thiophen-2-ylmethylene)-2-thioxoimidazolidin-4-one]
[1]; HepG2, IC50 = 0.017 μM, 48 h, control 1.05%
  necrotic cells (Q1, AV−/PI+): 6.08%
[1]; HepG2, 11.42% compared to 0.59% in control
  apoptosis induction versus control: 19.35 fold
[2]; 464 in control
  number of colonies: 136
[2]; Homo sapiens, 48 h treatment, read-out: colony inhibition rate
  inhibition at 100 µM: ~88%
[3]; SEC-bearing mice, SEC control 7.52 ± 0.5
  RBC’s count: 9.3 ± 0.4 ×10^6/µL
[3]; SEC-bearing mice, SEC control 11.8 ± 0.8
  Hemoglobin: 13.3 ± 0.7 g/dL
[3]; SEC-bearing mice, SEC control 16.5 ± 3.4
  WBC’s count: 9.5 ± 1.9 ×10^3/µL
[3]; normal mice, normal control 8.8 ± 0.3
  RBC’s count: 8.7 ± 0.4 ×10^6/µL
[3]; normal mice, normal control 9.4 ± 1.2
  WBC’s count: 9.42 ± 1.3 ×10^3/µL
[3]; normal mice, normal control 13.3 ± 0.7
  Hemoglobin: 12.6 ± 0.5 g/dL
[4]
  AKT protein level: decreased
  BCL2 protein level: decreased
  Caspase 3 protein level: upregulated
  Caspase 9 protein level: upregulated
  PI3K protein level: decreased
